Assay results as given in patent US8030354B2, “Substituted biphenyl GPR40 modulators” (Amgen Inc., priority 2007, dated 2011).

Target: GPR40 (Homo sapiens, UniProt O14842)
Assay: Cell-based aequorin assay (CHO cells stably expressing GPR40 and aequorin)
Design: expressed in transfected cells; host or cells: CHO cells stably transfected with GPR40 and aequorin
Details: activation of human GPR40, CHO cells, 0.01% HSA
Procedure: Briefly, the Aequorin assays were performed on doubly stable CHO cells expressing GPR40 and Aequorin DNA. […] The luminescence was recorded over a period of 20 seconds with a Microlumat luminometer (Berthold). […] The inositol phosphate assay was performed on an A9 cell line stably transfected with GPR40 (A9_GPR40). The cells were incubated with different concentrations of compounds and [^3H] inositol accumulation was measured after 1 hour.
Cell-based aequorin assays were employed to characterize the modulatory activity of compounds on the GPR40 signaling pathway. In an exemplary assay, CHO cells were stably transfected with both GPR40 and Aequorin (Euroscreen). Cells were detached from the tissue culture dish with 2 mL of trypsin (0.25%(w/v)). Trypsinization was halted with 28 mL of Hanks Buffered Salt Solution containing 20 mM Hepes (H/HBSS) and 0.01% fatty acid-free human serum albumin (HSA). Coelantrazine is added to 1 ug/mL, and the cells were incubated for 2 hours at room temperature. Compounds were dissolved in DMSO for preparation of 10 mM stock solutions. Compounds were diluted in H/HBSS containing 0.01% HSA. Serial dilutions of the test compounds were prepared to determine dose response.
Aequorin luminescence measurements were made using an EG&G Berthold 96-well luminometer, and the response was measured over a 20 second interval after cells and compounds were mixed. The maximum relative light units was plotted to determine dose response. The EC50 (effective concentration to reach 50% maximal response) was determined from the dose response plot.

GPR40, sequence (O14842 whole entry): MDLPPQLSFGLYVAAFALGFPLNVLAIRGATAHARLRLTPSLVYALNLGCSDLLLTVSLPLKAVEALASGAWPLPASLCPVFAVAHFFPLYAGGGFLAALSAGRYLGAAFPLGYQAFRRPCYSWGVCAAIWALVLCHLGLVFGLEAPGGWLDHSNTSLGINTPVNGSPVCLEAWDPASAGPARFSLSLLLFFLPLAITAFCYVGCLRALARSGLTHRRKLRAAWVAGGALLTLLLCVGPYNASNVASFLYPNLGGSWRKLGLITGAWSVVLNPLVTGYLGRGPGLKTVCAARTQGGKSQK

Row | Compound | EC50 [nM]
1 | C=CC(C)(C)[C@H](O)c1cc(COc2cccc([C@H](CCC)CC(=O)O)c2)ccc1-c1cc(OC)ccc1F (single isomer, unassigned) [Example 67.25, (3R)-3-(3-(((2′-Fluoro-2-((1S)-1-hydroxy-2,2-dimethyl-3-butenyl)-5′-(methyloxy)-1,1′-biphenyl-4-yl)methyl)oxy)phenyl)hexanoic acid or (3R)-3-(3-(((2′-fluoro-2-((1R)-1-hydroxy-2,2-dimethyl-3-butenyl)-5′-(methyloxy)-1,1′-biphenyl-4-yl)methyl)oxy)phenyl)hexanoic acid] | 1000 to 10000
2 | CC1(C)CCC=C1c1cc(COc2cccc([C@@H](CC(=O)O)C3CC3)c2)ccc1-c1cc(O)ccc1F (single isomer, unassigned) [Example 66.14, (3S)-3-Cyclopropyl-3-(3-(((2-(5,5-dimethyl-1-cyclopenten-1-yl)-2′-fluoro-5′-hydroxy-1,1′-biphenyl-4-yl)methyl)oxy)phenyl)propanoic acid or (3R)-3-cyclopropyl-3-(3-(((2-(5,5-dimethyl-1-cyclopenten-1-yl)-2′-fluoro-5′-hydroxy-1,1′-biphenyl-4-yl)methyl)oxy)phenyl)propanoic acid] | 100 to 1000
3 | CSc1cccc(-c2ccc(COc3cccc([C@H](C)CC(=O)O)c3)cc2C(C)(C)C)c1 (single isomer, unassigned) [Example 3, (3R)-3-(3-(((2-(1,1-Dimethylethyl)-3′-(methylsulfanyl)-1,1′-biphenyl-4-yl)methyl)oxy)phenyl)butanoic acid or (3S)-3-(3-(((2-(1,1-dimethylethyl)-3′-(methylsulfanyl)-1,1′-biphenyl-4-yl)methyl)oxy)phenyl)butanoic acid] | 1000 to 10000
4 | COc1ccc(F)c(-c2ccc(COc3cccc(C(CC(=O)O)C4CC4)c3)cc2C2CCCC2(C)C)c1 (single isomer, unassigned) [Example 66.5] | 100 to 1000
5 | COc1ccc(F)c(-c2ccc(COc3cccc([C@@H](CC(=O)O)C4CC4)c3)cc2C2CCCCCCC2)c1 (single isomer, unassigned) [Example 66.16, (3S)-3-(3-(((2-Cyclooctyl-2′-fluoro-5′-(methyloxy)-1,1′-biphenyl-4-yl)methyl)oxy)phenyl)-3-cyclopropylpropanoic acid or (3R)-3-(3-(((2-cyclooctyl-2′-fluoro-5′-(methyloxy)-1,1′-biphenyl-4-yl)methyl)oxy)phenyl)-3-cyclopropylpropanoic acid] | 100 to 1000
6 | CCC[C@H](CC(=O)O)c1cccc(OCc2ccc(-c3ccccc3F)c(C(C)(C)C)c2)c1 (single isomer, unassigned) [Example 67.18, (3R)-3-(3-(((2-(1,1-Dimethylethyl)-2′-fluoro-1,1′-biphenyl-4-yl)methyl)oxy)phenyl)hexanoic acid or (3S)-3-(3-(((2-(1,1-dimethylethyl)-2′-fluoro-1,1′-biphenyl-4-yl)methyl)oxy)phenyl)hexanoic acid] | 1000 to 10000
7 | COc1cccc(-c2ccc(COc3cccc([C@@H](CC(=O)O)C(C)C)c3)cc2C(C)(C)C)c1 (single isomer, unassigned) [Example 58, (3S)-3-(3-(((2-(1,1-Dimethylethyl)-3′-(methyloxy)-1,1′-biphenyl-4-yl)methyl)oxy)phenyl)-4-methylpentanoic acid or (3R)-3-(3-(((2-(1,1-dimethylethyl)-3′-(methyloxy)-1,1′-biphenyl-4-yl)methyl)oxy)phenyl)-4-methylpentanoic acid] | 1000 to 10000
8 | COc1ccc(F)c(-c2ccc(COc3cccc([C@@H](CC(=O)O)C4CC4)c3)cc2[C@H](C)C(C)(C)C)c1 (single isomer, unassigned) [Example 66.18] | 100 to 1000
9 | COc1ccc(F)c(-c2ccc(COc3cccc([C@H](C)CC(=O)O)c3)cc2OCc2ccccc2)c1 (single isomer, unassigned) [Example 30, (3R)-3-(3-(((2′-Fluoro-5′-(methyloxy)-2-((phenylmethyl)oxy)-1,1′-biphenyl-4-yl)methyl)oxy)phenyl)butanoic acid or (3S)-3-(3-(((2′-fluoro-5′-(methyloxy)-2-((phenylmethyl)oxy)-1,1′-biphenyl-4-yl)methyl)oxy)phenyl)butanoic acid] | 1000 to 10000
10 | CCCC(CC(=O)O)c1cccc(OCc2ccc(-c3cc(OC)ccc3F)c(C3=CCC(C)(C)CC3)c2)c1 (single isomer, unassigned) [Example 67.5, (3R)-3-(3-(((2-(4,4-Dimethyl-1-cyclohexen-1-yl)-2′-fluoro-5′-(methyloxy)-1,1′-biphenyl-4-yl)methyl)oxy)phenyl)hexanoic acid or (3S)-3-(3-(((2-(4,4-dimethyl-1-cyclohexen-1-yl)-2′-fluoro-5′-(methyloxy)-1,1′-biphenyl-4-yl)methyl)oxy)phenyl)hexanoic acid] | 100 to 1000
11 | COc1ccc(F)c(-c2ccc(COc3cccc([C@@H](CC(=O)O)C4CC4)c3)cc2[C@@H]2CCCCC2(C)C)c1 (single isomer, unassigned) [Example 66.21] | 100 to 1000
12 | COc1ccc(F)c(-c2ccc(COc3cccc(C(CC(=O)O)C4CC4)c3)cc2CN2CCCCCC2)c1 (single isomer, unassigned) [Example 66.73, (3S)-3-(3-(((2-(1-Azepanylmethyl)-2′-fluoro-5′-(methyloxy)-1,1′-biphenyl-4-yl)methyl)oxy)phenyl)-3-cyclopropylpropanoic acid or (3R)-3-(3-(((2-(1-azepanylmethyl)-2′-fluoro-5′-(methyloxy)-1,1′-biphenyl-4-yl)methyl)oxy)phenyl)-3-cyclopropylpropanoic acid] | 1000 to 10000
13 | CCC[C@H](CC(=O)O)c1cccc(OCc2ccc(-c3cc(OC)ccc3F)c(COCC)c2)c1 (single isomer, unassigned) [Example 67.23, (3R)-3-(3-(((2-((Ethyloxy)methyl)-2′-fluoro-5′-(methyloxy)-1,1′-biphenyl-4-yl)methyl)oxy)phenyl)hexanoic acid or (3S)-3-(3-(((2-((ethyloxy)methyl)-2′-fluoro-5′-(methyloxy)-1,1′-biphenyl-4-yl)methyl)oxy)phenyl)hexanoic acid] | 1000 to 10000
14 | COc1ccc(F)c(-c2ccc(COc3cccc([C@H](C)CC(=O)O)c3)cc2OC2CCCCO2)c1 (single isomer, unassigned) [Example 26, (3R)-3-(3-(((2′-Fluoro-5′-(methyloxy)-2-(tetrahydro-2H-pyran-2-yloxy)-1,1′-biphenyl-4-yl)methyl)oxy)phenyl)butanoic acid or (3S)-3-(3-(((2′-fluoro-5′-(methyloxy)-2-(tetrahydro-2H-pyran-2-yloxy)-1,1′-biphenyl-4-yl)methyl)oxy)phenyl)butanoic acid] | 100 to 1000
15 | C=CC[C@H](CC(=O)O)c1cccc(OCc2ccc(-c3cc(OC)ccc3F)c(OCCCC)c2)c1 (single isomer, unassigned) [Example 54, (3R)-3-(3-(((2-(Butyloxy)-2′-fluoro-5′-(methyloxy)-1,1′-biphenyl-4-yl)methyl)oxy)phenyl)-5-hexenoic acid or (3S)-3-(3-(((2-(butyloxy)-2′-fluoro-5′-(methyloxy)-1,1′-biphenyl-4-yl)methyl)oxy)phenyl)-5-hexenoic acid] | 1000 to 10000
16 | COc1cccc(-c2ccc(COc3cccc(C(CC(=O)O)C4CCC4)c3)cc2C2CCCC2(C)C)c1 (single isomer, unassigned) [Example 79.5] | 100 to 1000
17 | CCCC(CC(=O)O)c1cccc(OCc2ccc(-c3cc(OC)ccc3F)c(CN3CCCC3)c2)c1 (single isomer, unassigned) [Example 67.28, (3R)-3-(3-(((2′-Fluoro-5′-(methyloxy)-2-(1-pyrrolidinylmethyl)-1,1′-biphenyl-4-yl)methyl)oxy)phenyl)hexanoic acid or (3S)-3-(3-(((2′-fluoro-5′-(methyloxy)-2-(1-pyrrolidinylmethyl)-1,1′-biphenyl-4-yl)methyl)oxy)phenyl)hexanoic acid] | 1000 to 10000
18 | CCCCOc1cc(COc2cccc([C@H](C)CC(=O)O)c2)ccc1-c1ccccc1OC (single isomer, unassigned) [Example 25, (3R)-3-(3-(((2-(Butyloxy)-2′-(methyloxy)-1,1′-biphenyl-4-yl)methyl)oxy)phenyl)butanoic acid or (3S)-3-(3-(((2-(butyloxy)-2′-(methyloxy)-1,1′-biphenyl-4-yl)methyl)oxy)phenyl)butanoic acid] | > 10000
19 | CCCCOc1cc(COc2cccc([C@@H](CC(=O)O)C(C)C)c2)ccc1-c1cc(OC)ccc1F (single isomer, unassigned) [Example 53] | 1000 to 10000
20 | C=CC(C)(C)C(OC)c1cc(COc2cccc(C(CC)CC(=O)O)c2)ccc1-c1cc(OC)ccc1F (single isomer, unassigned) [Example 78.13] | 1000 to 10000
21 | CCCCCCOc1cc(COc2cccc([C@H](CCC)CC(=O)O)c2)ccc1-c1cc(OC)ccc1F (single isomer, unassigned) [Example 67.15, (3R)-3-(3-(((2′-Fluoro-2-(hexyloxy)-5′-(methyloxy)-1,1′-biphenyl-4-yl)methyl)oxy)phenyl)hexanoic acid or (3S)-3-(3-(((2′-fluoro-2-(hexyloxy)-5′-(methyloxy)-1,1′-biphenyl-4-yl)methyl)oxy)phenyl)hexanoic acid] | 100 to 1000
